Measured values: patent US20240299484A1, “DILEUCINE COMPOSITIONS AND METHODS OF USE THEREOF” (Ingenious Ingredients, LP, priority 2023, published 2024)
Marks after values point to notes of the source that are not given here.

Tests used:
Assay type in all cases: in vivo, Swiss Albino mice
[1] = Forelimb grip strength test; details: for Forelimb grip strength (gf) Day −0: Day −0 (baseline), mice, n = 8; for Forelimb grip strength (gf) Day −28: Day −28, one hour after treatment, oral once a day for 28 days; for Increase strength over Day −0: Day −28 minus Day −0; for Percentage Increase over control (grip strength): increase vs Exercise Control, 28 days
Method: (§1) Eight 8-week-old male Swiss Albino mice per experimental group were housed in an animal room at a constant temperature (22±3° C.) and humidity (30%-70%) under a 12:12 h light-dark cycle with standard laboratory diet (Purina 5L79, Rat and Mouse 18% protein; PMI Nutrition International, Brentwood, MO, USA). Distilled water was provided ad libitum. All animal experiments were reviewed and approved by the Institutional Animal Ethical Committee (IAEC) of Radiant Research Services Pvt. Ltd (Bangalore, India). All research was conducted in accordance with the guidelines of the committee for the purpose of control and supervision of experiments on animals (CPCSEA Registration Number-1803/PO/RcBi/S/2015/CPCSEA).
(§2) After one week of acclimation, the animals were randomly divided by body weight into different groups (n=8 per group in each test) for oral treatment once a day, at approximately same time each day (+1 hour), for 28 consecutive days: (1) vehicle control; (2) paraxanthine (3) dileucine; (4) paraxanthine+dileucine; (5) L-arginine; (6) L-arginine+dileucine; (7) L-citrulline; and (8) L-citrulline+dileucine. The dose administered to the mice was calculated using US Food and Drug Administration for human equivalence doses (HED), assuming a human weight of 60 kg. The following HED were used in this study: 2,000 mg dileucine (RAMPS™, Ingenious Ingredients, L.P., Lewisville, TX, USA; mouse 411 mg/kg bw), 100 mg paraxanthine, (ENFINITY™, Ingenious Ingredients, L.P Lewisville, TX, USA; mouse dose: 20.5 mg/kg bw/day); 3,000 mg L-arginine (Nanjing Nutrabuilding Bio-tech Co., LTD., No. 270 Jiqingmen Strect, Suning Huigu, Building E6, Room 2105, Nanjing, China 210017; mouse 616.55 mg/kg bw), 3,000 mg L-citrulline (Nanjing Nutrabuilding Bio-tech Co., LTD., No. 270 Jiqingmen Street, Suning Huigu, Building E6, Room 2105, Nanjing, China 210017; mouse 616.55 mg/kg bw). 0.5% Carboxy Methyl Cellulose sodium was used as vehicle and the test item formulations were prepared daily. Dosing was conducted via oral gavage using disposable polypropylene syringes with sterilized stainless steel gavage tubes. The food intake and water consumption were monitored daily, and BW was recorded weekly. The last dose on day 28 was given 1 hour prior to testing.
The forelimb grip strength was measured on day 0 and day 28 by using a stainless-steel grill to assess muscle strength (Orchid Scientific & Innovative India Pvt Ltd, India). Grip strength was measured one hour after treatment. Briefly, each mouse was placed on a grill chamber and the steel bar is inverted; grip strength is measured by recording the time each animal holds the steel bar. The maximum time for each trial was six minutes. Each animal performed three independent trials separated by six minutes intervals and the mean of the three trials was calculated.

TH1 = experiment: Immune health biomarkers (T helper subsets): TH1; details: for TH1(%): T helper subset in blood after 28 days, mice, n = 8; for TH1 Change over control [%]: vs Exercise Control, 28 days
Method: (§3) PMI Nutrition International, Brentwood, MO, USA). Distilled water was provided ad libitum. All animal experiments were reviewed and approved by the Institutional Animal Ethical Committee (IAEC) of Radiant Research Services Pvt. Ltd (Bangalore, India). All research was conducted in accordance with the guidelines of the committee for the purpose of control and supervision of experiments on animals (CPCSEA Registration Number-1803/PO/[…]). […] (1) vehicle control; […] (4) paraxanthine+dileucine; […] The dose administered to the mice was calculated using US Food and Drug Administration for human equivalence doses (HED), assuming a human weight of 60 kg. […] Dosing was conducted via oral gavage using disposable polypropylene syringes with sterilized stainless steel gavage tubes. The food intake and water consumption were monitored daily, and BW was recorded weekly. The last dose on day 28 was given 1 hour prior to testing. Serum and plasma samples were separated by centrifuging the blood at 8000 rpm for 10 mins and analyze the below mentioned biomarkers, Biomarkers: TC, TG, LDL and HDL, CRP, Serum lactate, Ammonia, Glucose, NO, IL-2, IL-6, IL-10. Blood was collected in EDTA tubes for below mentioned biomarkers, Immune health Biomarkers (T helper subsets): […]

triglycerides (TG) = experiment: Blood lipids: triglycerides; details: for TG: after 28 days of supplementation, mice, n = 8; for TG Change over control [%]: vs Exercise Control, 28 days
Method: as §1, §2
(§4) All animals were euthanized by 95% CO2 after 28 days of following their assigned treatment. Blood was collected immediately after euthanization by the retro-orbital route and was immediately centrifuged at 1500×g for 10 min at 4° C. before having all serum transferred into cryogenic tubes and stored at −80° C.
(§5) Serum and plasma samples were separated by centrifuging the blood at 8000 rpm for 10 mins and analyze the below mentioned biomarkers, Biomarkers: TC, TG, LDL and HDL, CRP, Serum lactate, Ammonia, Glucose, NO, IL-2, IL-6, IL-10. Blood was collected in EDTA tubes for below mentioned biomarkers, Immune health Biomarkers (T helper subsets): TH1, TH2, TH17, Tfh, iTreg.

IL-10 = experiment: Inflammatory markers: IL-10; details: for IL-10 (pg/ml): after 28 days of supplementation and exercise, mice, n = 8; for IL-10 Change over control [%]: vs Exercise Control, 28 days
Method: as §1, §2, §4, §5

C-reactive protein (CRP) = experiment: Inflammatory markers: CRP; details: for CRP (mg/L): after 28 days of supplementation and exercise, mice, n = 8; for CRP Change over control [%]: vs Exercise Control, 28 days
Method: as §1, §2, §4, §5

TH2 = experiment: Immune health biomarkers (T helper subsets): TH2; details: for TH2(%): T helper subset in blood after 28 days, mice, n = 8; for TH2 Change over control [%]: vs Exercise Control, 28 days
Method: as §3

[2] = Effect on body weight, 28-day oral supplementation with exercise; details: for Body Weight (grams) Day −0: Day −0 (baseline); for Body Weight (grams) Day −0 / Body Weight (grams) Day −28: mice, n = 8; for Weight gain in grams: Day −0 to Day −28, oral once a day; for Body Weight (grams) Day −28: Day −28, oral once a day for 28 days; for Percentage weight loss over control: weight gain vs Exercise Control, 28 days
Method: as §1, §2
Individual body weights were recorded at receipt, on the day of randomization, on the first day of treatment before dosing (Day 1) and weekly thereafter. The body weight changes for all the animals were calculated and reported along with the body weight data.

IL-6 = experiment: Inflammatory markers: IL-6; details: for IL-6 Change over control [%]: vs Exercise Control, 28 days
Method: as §1, §2, §4, §5

Tfh = experiment: Immune health biomarkers (T helper subsets): Tfh; details: for Tfh(%) (mg/L): T helper subset in blood after 28 days, mice, n = 8; for Tfh Change over control [%]: vs Exercise Control, 28 days
Method: as §1, §2, §5

[3] = after 28 days of supplementation and exercise, mice, n = 8

| Structure (SMILES) | Forelimb grip strength (gf) Day −0 [1] | Forelimb grip strength (gf) Day −28 [1] | Increase strength over Day −0 [1] | Percentage Increase over control (grip strength) [1] | TH1(%) (TH1) | TH1 Change over control [%] (TH1) | TG (triglycerides (TG)) | TG Change over control [%] (triglycerides (TG)) | IL-10 (pg/ml) (IL-10) | IL-10 Change over control [%] (IL-10) | CRP (mg/L) (C-reactive protein (CRP)) | CRP Change over control [%] (C-reactive protein (CRP)) | TH2(%) (TH2) | TH2 Change over control [%] (TH2) | Body Weight (grams) Day −0 [2] | Weight gain in grams [2] | Body Weight (grams) Day −28 [2] | Percentage weight loss over control [2] | IL-6 Change over control [%] (IL-6) | Tfh(%) (mg/L) (Tfh) | also measured |
| --- | --- | --- | --- | --- | --- | --- | --- | --- | --- | --- | --- | --- | --- | --- | --- | --- | --- | --- | --- | --- | --- |
| N=C(N)NCCC[C@H](N)C(=O)O [L-Arginine, L-arginine] | 99.75 gf | 139.13*** gf | 39.38 gf | 39% | 53.66*** % | −43% | 94.1 mg/dL | −2% | 565.47** pg/ml | 5% | 0.69*** mg/L | −16% | 40.44*** % | 252% | 23 grams | 10.01 grams | 33.01* grams | −7% | −7% | 44.16*** % | IL-6 (pg/ml) (IL-6; [3]): 351.39** pg/ml; Tfh Change over control [%] (Tfh): 465% |
| CC(C)C[C@H](NC(=O)[C@@H](N)CC(C)C)C(=O)O [Dileucine, L-Leucyl-L-leucine] | 99.25 gf | 149.0*** gf | 49.75 gf | 76% | 58.86*** % | −37% | 92.66 mg/dL | −3% | 569.36*** pg/ml | 8% | 0.63*** mg/L | −18% | 53.68*** % | 368% | 24.09 grams | 9.14 grams | 33.23* grams | −15% | −7% | 55.72% | IL-6 (pg/ml) (IL-6; [3]): 343** pg/ml; Tfh Change over control [%] (Tfh): 613% |
| Cn1c(=O)[nH]c2ncn(C)c2c1=O [Paraxanthine, 1,7-dimethylxanthine] | 98.38 gf | 148.88*** gf | 50.5 gf | 79% | 65.68*** % | −30% | 91.94 mg/dL | −4% | 571.71*** pg/ml | 8% | 0.64** mg/L | −17% | 53.63*** % | 368% | 24.35 grams | 8.86 grams | 33.21* grams | −18% | −8% | 54.96*** % | IL-6 (pg/ml) (IL-6; [3]): 340.6** pg/ml; Tfh Change over control [%] (Tfh): 603% |
| NC(=O)NCCC[C@H](N)C(=O)O [L-Citrulline, L-citrulline] | 97.63 gf | 138.5*** gf | 40.87 gf | 45% | 59.71*** % | −36% | 94.58 mg/dL | −2% | 559.63** pg/ml | 4% | 0.69*** mg/L | −16% | 38.23*** % | 234% | 22.49 grams | 9.83 grams | 33.01* grams | −9% | −7% | 40.87*** % | IL-6 (IL-6; [3]): 349.52 pg/mL; Tfh Change over control [%] (Tfh): 423% |
